US12077503B2, “Substituted cyclic amides and their use as herbicides” (FMC CORPORATION, priority 2015, dated 2024)
Where two headings read alike, the source gives them in different places.

Legend:
Test in all cases: Test A postemergence
Format in all cases: in vivo
Kochia (Kochia scoparia) = conditions: Bassia scoparia, post-emergence, 240 h; for pest or weed control at 125 g/ha: 125 g ai/ha, read-out: Kochia plant response rating (0 to 100 scale); for pest or weed control at 500 g/ha: 500 g ai/ha, visual injury, 0 to 100 scale (0 no effect, 100 complete control), approx. 10 d, read-out: Plant response rating, Kochia
Outline: (§1)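 Treatment is preemergence as a directed soil spray after planting, or postemergence at the one- to two-leaf stage, with test chemical in a non-phytotoxic solvent mixture plus surfactant. Plants stay in the greenhouse about 10 d before visual injury scoring on a 0 to 100 scale versus untreated controls.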

[1] = test system: blackgrass (Alopecurus myosuroides); conditions: Alopecurus myosuroides, post-emergence, 240 h; for pest or weed control at 125 g/ha: 125 g ai/ha, read-out: Blackgrass plant response rating (0 to 100 scale); for pest or weed control at 500 g/ha: 500 g ai/ha, visual injury, 0 to 100 scale (0 no effect, 100 complete control), approx. 10 d, read-out: Plant response rating, Blackgrass
Outline: as §1

corn (Zea mays) = conditions: Zea mays, post-emergence, 240 h; for plant injury at 125 g/ha: 125 g ai/ha, read-out: Corn plant response rating (0 to 100 scale); for Corn plant response rating (crop injury, 0 = no effect, 100 = complete kill) at 500 g/ha: 500 g ai/ha, visual injury, 0 to 100 scale (0 no effect, 100 complete control), approx. 10 d
Outline: as §1

[2] = test system: pigweed (Amaranthus retroflexus); conditions: Amaranthus retroflexus, post-emergence, 240 h; for pest or weed control at 125 g/ha: 125 g ai/ha, read-out: Pigweed plant response rating (0 to 100 scale); for pest or weed control at 500 g/ha: 500 g ai/ha, visual injury, 0 to 100 scale (0 no effect, 100 complete control), approx. 10 d, read-out: Plant response rating, Pigweed
Outline: as §1

[3] = test system: ragweed (common ragweed, Ambrosia elatior); conditions: Ambrosia artemisiifolia, post-emergence, 240 h; for pest or weed control at 125 g/ha: 125 g ai/ha, read-out: Ragweed plant response rating (0 to 100 scale); for pest or weed control at 500 g/ha: 500 g ai/ha, visual injury, 0 to 100 scale (0 no effect, 100 complete control), approx. 10 d, read-out: Plant response rating, Ragweed
Outline: as §1

[4] = test system: ryegrass, Italian (Italian ryegrass, Lolium multiflorum); conditions: Lolium multiflorum, post-emergence, 240 h; for pest or weed control at 125 g/ha: 125 g ai/ha, read-out: Ryegrass, Italian plant response rating (0 to 100 scale); for pest or weed control at 500 g/ha: 500 g ai/ha, visual injury, 0 to 100 scale (0 no effect, 100 complete control), approx. 10 d, read-out: Plant response rating, Ryegrass, Italian
Outline: as §1

[5] = postemergence, visual injury vs untreated controls after approx. 10 d, 0 = no effect, 100 = complete control
[6] = Postemergence, visual rating about 10 d after treatment

Row | SMILES | pest or weed control at 125 g/ha (Kochia (Kochia scoparia); [5]) [%] | pest or weed control at 500 g/ha (Kochia (Kochia scoparia); Postemergence) [%] | pest or weed control at 125 g/ha [1, 5] [%] | pest or weed control at 500 g/ha ([1]; Postemergence) [%] | plant injury at 125 g/ha (corn (Zea mays); [5]) [%] | Corn plant response rating (crop injury, 0 = no effect, 100 = complete kill) at 500 g/ha (corn (Zea mays); Postemergence) [%] | pest or weed control at 125 g/ha [2, 5] [%] | pest or weed control at 500 g/ha ([2]; Postemergence) [%] | pest or weed control at 125 g/ha [3, 5] [%] | pest or weed control at 500 g/ha ([3]; Postemergence) [%] | pest or weed control at 125 g/ha [4, 5] [%] | pest or weed control at 500 g/ha ([4]; Postemergence) [%] | pest or weed control at 125 g/ha (Kochia (Kochia scoparia); [6]) [%] | pest or weed control at 125 g/ha [1, 6] [%] | plant injury at 125 g/ha (corn (Zea mays); [6]) [%] | pest or weed control at 125 g/ha [2, 6] [%] | pest or weed control at 125 g/ha [3, 6] [%] | pest or weed control at 125 g/ha [4, 6] [%]
1 | Cc1c(F)cccc1NC(=O)[C@H]1C(=O)N(C)C[C@@H]1c1ccc2c(c1)OC(F)(F)O2 [Compound 1252] | 20 | 60 | 50 | 50 | 80 | 90 | 0 | 50 | 0 | 50 | 70 | 70 |  |  |  |  |  | 
2 | CN1C[C@H](c2ccc(F)c(C#N)c2)[C@@H](C(=O)Nc2ccccc2F)C1=O [Compound 1254] | 0 | 40 | 0 | 40 | 20 | 50 | 0 | 20 | 0 | 0 | 0 | 70 |  |  |  |  |  | 
3 | CSc1ccccc1NC(=O)[C@H]1C(=O)NC[C@@H]1c1ccc2c(c1)OCO2 [Compound 1257] | 0 | 0 | 0 | 0 | 0 | 0 | 0 | 0 | 0 | 0 | 0 | 0 |  |  |  |  |  | 
4 | COc1cc([C@H]2CN(C)C(=O)[C@@H]2C(=O)Nc2cccc(F)c2F)ccc1F [Compound 1299] |  | 60 |  | 60 |  | 80 |  | 0 |  | 20 |  | 60 | 0 | 20 | 40 | 0 | 0 | 20
5 | COc1cc([C@H]2CN(C)C(=O)[C@@H]2C(=O)Nc2ccccc2SC)ccc1F [Compound 1301] |  | 50 |  | 0 |  | 0 |  | 0 |  | 0 |  | 0 | 0 | 0 | 0 | 0 | 0 | 0
6 | Cc1c(F)cccc1NC(=O)[C@H]1C(=O)NC[C@@H]1c1cccc2c1OC(F)(F)O2 [Compound 1305] |  | 0 |  | 0 |  | 0 |  | 0 |  | 0 |  | 0 | 0 | 0 | 0 | 0 | 0 | 0
7 | Cc1cc([C@H]2CN(C)C(=O)[C@@H]2C(=O)Nc2cccc(F)c2C)ccc1F [Compound 1311] |  | 50 |  | 60 |  | 80 |  | 20 |  | 30 |  | 80 | 30 | 60 | 70 | 0 | 0 | 40
8 | CN1C[C@H](c2cccc(C(C)(F)F)c2)[C@@H](C(=O)Nc2cccc(F)c2F)C1=O [Compound 1316] |  | 40 |  | 80 |  | 80 |  | 60 |  | 70 |  | 80 | 30 | 70 | 80 | 50 | 30 | 50
9 | CN1C[C@H](c2cccc(C(C)(F)F)c2)[C@@H](C(=O)Nc2ccccc2F)C1=O [Compound 1317] |  | 30 |  | 80 |  | 80 |  | 20 |  | 20 |  | 80 | 20 | 80 | 80 | 30 | 0 | 40
10 | CN1C[C@H](c2cccc(C(C)(F)F)c2)[C@@H](C(=O)Nc2ccccc2S(C)(=O)=O)C1=O [Compound 1318] |  | 40 |  | 70 |  | 80 |  | 40 |  | 60 |  | 40 | 0 | 70 | 60 | 30 | 10 | 20
11 | CS(=O)(=O)c1ccccc1NC(=O)[C@H]1C(=O)NC[C@@H]1c1ccc2c(c1)CCO2 [Compound 1320] |  | 0 |  | 0 |  | 0 |  | 0 |  | 0 |  | 0 | 0 | 0 | 0 | 0 | 0 | 0
12 | CN1C[C@H](c2ccc3c(c2)CCO3)[C@@H](C(=O)Nc2ccc(F)c(F)c2F)C1=O [Compound 1323] |  | 70 |  | 60 |  | 70 |  | 0 |  | 50 |  | 70 | 0 | 50 | 50 | 0 | 0 | 40
